# Target: T1, Abl T315I KD (unphosphorylated c-Abl T315I kinase domain) (Mus musculus, UniProt P00520, T315I)
# T1 construct: purified and unphosphorylated T315I Abl kinase domain; made in house; host or cells: E. coli BL21(DE3)
# T1 sequence (P00520 242-493 T315I limits assumed): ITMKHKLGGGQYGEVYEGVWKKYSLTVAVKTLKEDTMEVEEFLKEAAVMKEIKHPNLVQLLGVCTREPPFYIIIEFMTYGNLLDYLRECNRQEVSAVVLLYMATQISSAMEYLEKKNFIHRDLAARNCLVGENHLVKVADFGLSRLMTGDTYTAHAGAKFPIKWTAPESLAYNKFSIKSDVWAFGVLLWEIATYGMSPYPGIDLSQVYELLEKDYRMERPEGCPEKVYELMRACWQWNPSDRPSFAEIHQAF
# Experiment: c-Abl T315I (unphosphorylated kinase domain) enzyme assay, PK/LDH coupled
# Assay type: biochemical
# Details: mutant Abl kinase domain at zero phosphorylation state; read-out: Abl_T215l—0P IC50
# Excerpt: Although the first of these examples uses the kinase domain of a mutant form of Abl T315I (“Abl T315I KD”), the kinase assays may use various forms of mutant and wild type enzymes, including, for example, the entire protein, the kinase domain, or a portion thereof (e.g. Abl Y393F). The kinases used in the assays may also be of varying phosphorylation states. In the c-Abl example, a mutant kinase at a zero phosphorylation state was used.
# c-Abl Pyruvate Kinase/Lactate Dehydrogenase Coupled Enzyme Assay
# In the c-Abl Pyruvate Kinase (PK)/Lactate Dehydrogenase (LDH) Coupled Assay the protein kinase dependant phosphorylation of a substrate peptide was coupled to the oxidation of NADH. The oxidation of NADH to NAD+ was detected by monitoring a decrease in absorbance at 340 nm.
# Materials: Abl substrate peptide=EAIYAAPFAKKK SEQ ID NO:1)-OH (Biopeptide, San Diego, Calif.); βNADH (Sigma Cat#N-8129, FW=709.4); 2M MgCl2; 1M HEPES buffer, pH 7.5; Phosphoenolpyruvate (PEP) (Sigma Cat#P-7002, FW=234); Lactate dehydrogenase (LDH) (Worthington Biochemical Cat#2756); Pyruvate Kinase (PK) (Sigma Cat#P-9136); ATP (Sigma Cat#A-3377, FW=551); Greiner 384-well UV star plate; and purified and unphosphorylated T315I Abl kinase domain.
# Stock Solutions: 10 mM NADH (7.09 mg/ml in miliQH2O) made fresh daily; 10 mM Abl substrate peptide (13.4 mg/ml in miliQH2O) stored at −20° C.; 100 mM HEPES buffer, pH 7.5 (5 ml IM stock+45 ml miliQH2O); 100 mM MgCl2 (5 ml 2M MgCl2+95 ml dH2O); 100 mM PEP (23.4 mg/ml in dH2O) stored at −20° C.; 10 mM ATP (5.51 mg/ml in dH2O) stored at −20° C. (diluted 50 μl into total of 10 ml miliQH2O daily=50 μM ATP working stock); 1000 U/ml PK (U/mg varies with lot) flash-frozen under liquid N2 and stored at −80° C.; and 1000 U/ml LDH (U/mg varies with lot) flash-frozen under liquid N2 and stored at −80° C.
# Standard Assay Setup for 384-well format (50 μl reaction): 300 μM NADH; 10 mM MgCl2; 2 mM PEP; 45 U/ml PK; 60 U/ml LDH; 200 μM Abl substrate peptide; 2.5 μl test compound (in DMSO); 2 μg/ml Abl kinase domain; 10 μM ATP; 100 mM HEPES buffer. Positive controls contained DMSO with no test compound. Negative controls contained 5 μl of 0.5M EDTA (50 mM in the assay). The dephosphorylated form of the c-Abl T315I mutant was used in the biochemical screening assays. The kinase reaction was initiated at time t=0 by the addition of ATP.
# Activity was measured by following the time-dependent loss of NADH by absorbance spectroscopy at 340 nm. The linear portion of the resulting progress curve was then analyzed by linear regression to get the activity in absorbance units/time, reported as the slope of that best fit line (moles/unit time can be calculated from using molar extinction coefficient for NADH at 340 nm, 6250M^−1cm^−1).
# Data was evaluated using the equation: Z′=1-[3*(σ++σ−)/|μ+−μ−|] (Zhang, et al., 1999 J Biomol Screening 4(2) 67-73), where […] the mean and σ the standard deviation. The subscript designates positive or negative controls. The Z′ score for a robust screening assay should be 0.50. The typical threshold=μ+−3*σ+. Any value that falls below the threshold was designated a “hit”.
# Dose response was analyzed using the equation: y=min+{(max−min)/(1+10^[compound]-logIC50)}, where y is the observed initial slope, max=the slope in the absence of inhibitor, min=the slope at infinite inhibitor, and the IC50 is the [compound] that corresponds to ½ the total observed amplitude (Amplitude=max−min).
# To measure modulation, activation, or inhibition of Abl KD, a test compound was added to the assay at a range of concentrations. Inhibitors may inhibit Abl KD activity at an IC50 in the micromolar range, the nanomolar range, or, for example, in the subnanomolar range.
row,Compound,IC50
1,O=C(c1cccc(-c2cnc3[nH]nc(-c4ccncc4Cl)c3c2)c1)N1CCOCC1,< 1000 nM
2,COc1ccccc1-c1n[nH]c2ncc(-c3ccc(C(=O)N4CCCCC4)cc3)cc12,< 1000 nM
3,O=C(c1cccc(-c2cnc3[nH]nc(-c4ccc5cc[nH]c5c4)c3c2)c1)N1CCOCC1,< 1000 nM
4,COc1ccccc1-c1c[nH]c2ncc(-c3cccc(C(=O)N(C)C)c3)nc12,< 1000 nM
5,COc1cc(-c2cnc3[nH]nc(-c4ccccc4)c3c2)ccc1O,< 1000 nM
6,COc1ccccc1-c1n[nH]c2ncc(-c3ccc(O)c(C(=O)N4CCOCC4)c3)cc12,< 1000 nM
7,COc1c(F)cccc1-c1n[nH]c2ncc(-c3cccc(C(=O)N4CCOCC4)c3)cc12,< 1000 nM
8,COc1ccccc1-c1cnc2[nH]nc(-c3ccccc3OC)c2c1,< 1000 nM
9,Cc1ccsc1-c1n[nH]c2ncc(-c3cccc(C(=O)N4CCOCC4)c3)cc12,< 1000 nM
10,Cc1cc(F)ccc1-c1n[nH]c2ncc(-c3cccc(C(=O)N4CCOCC4)c3)cc12,< 1000 nM
11,c1ccc(-c2n[nH]c3ncc(-c4cccnc4)cc23)cc1,< 1000 nM
12,COc1ccccc1-c1n[nH]c2ncc(-c3cccc(C(=O)NC(C)C)c3)cc12,< 1000 nM
13,COc1ccccc1-c1n[nH]c2ncc(-c3cccc(S(=O)(=O)NC4CC4)c3)cc12,< 1000 nM
14,COc1cc(-c2cnc3[nH]cc(-c4ccc(C)cc4)c3n2)ccc1O,< 1000 nM
15,COc1ccccc1-c1n[nH]c2ncc(-c3ccc(C(=O)N4CCN(C)CC4)cc3)cc12,< 1000 nM
16,COc1ccccc1-c1n[nH]c2ncc(-c3cnc4[nH]n(C)c(=O)c4c3)cc12,< 1000 nM
17,COc1ccccc1-c1n[nH]c2ncc(-c3cccc(C(=O)N4CCN(C)CC4)c3)cc12,< 1000 nM

row,Compound,IC50
1,COc1ncc(-c2n[nH]c3ncc(-c4cccc(C(=O)N5CCOCC5)c4)cc23)c(OC)n1,< 1000 nM
2,COc1ccccc1-c1n[nH]c2ncc(-c3ccc(C(=O)N4CCCC4)cc3)cc12,< 1000 nM
3,COc1ccccc1-c1n[nH]c2ncc(-c3cccc(C(=O)N4CCN(CCN(C)C)CC4)c3)cc12,< 1000 nM
4,COc1ccccc1-c1n[nH]c2ncc(-c3cccnc3)cc12,< 1000 nM
5,COc1ccccc1-c1n[nH]c2ncc(-c3cccc(C(=O)N4CCCC4)c3)cc12,< 1000 nM
6,O=C(c1cccc(-c2cnc3[nH]nc(-c4cccc5cccnc45)c3c2)c1)N1CCOCC1,< 1000 nM
7,CCN1CCN(C(=O)c2cccc(-c3cnc4[nH]nc(-c5cc(F)ccc5OC)c4c3)c2)CC1,< 1000 nM
8,Oc1cccc(-c2cnc3[nH]nc(-c4ccccc4)c3c2)c1,< 1000 nM
9,CCc1ccccc1-c1n[nH]c2ncc(-c3cccc(C(=O)N4CCOCC4)c3)cc12,< 1000 nM
10,COc1ccccc1-c1n[nH]c2ncc(Br)cc12,< 1000 nM
11,c1ccc(-c2n[nH]c3ncc(-c4ccc5[nH]ccc5c4)cc23)cc1,< 1000 nM
12,COc1ccccc1-c1n[nH]c2ncc(-c3cccc(C(=O)N(C)C)c3)cc12,< 1000 nM
13,COc1ccccc1-c1n[nH]c2ncc(-c3ccc(C(=O)N4CCOCC4)cc3)cc12,< 1000 nM
14,COc1ccccc1-c1n[nH]c2ncc(-c3cccc(C(=O)N4CCC(CO)CC4)c3)cc12,< 1000 nM
15,COc1ccccc1-c1n[nH]c2ncc(-c3ccc(C(=O)NC4CC4)cc3)cc12,< 1000 nM
16,Cn1ccc2cc(-c3n[nH]c4ncc(-c5cccc(C(=O)N6CCOCC6)c5)cc34)ccc21,< 1000 nM
17,CCOc1ccccc1-c1n[nH]c2ncc(-c3cccc(C(=O)N4CCOCC4)c3)cc12,< 1000 nM
